ChEMBL document CHEMBL6134891, “Thienopyrimidinone Derivatives as a GluN2B/C/D Biased, Positive Allosteric Modulator of the N-Methyl-d-Aspartate Receptor” (J Med Chem, 2025)
In brackets after ≈: the same amount, converted by molar mass.

Assays:
[1] = biological target: Glutamate NMDA receptor; assay: Positive allosteric modulation of NMDAR in rat hippocampal neurons by Whole-cell and excised-patch recording method; conditions: hippocampal neuron
[2] = biological target: T1, Glutamate receptor ionotropic, NMDA 2A (Homo sapiens, UniProt Q05586+Q12879); assay: Positive allosteric modulation of GluN2A receptor (unknown origin) expressed in Doxycycline-inducible HEK293 cells by calcium influx assay
[3] = biological target: T2, Glutamate receptor ionotropic, NMDA 2B (Homo sapiens, UniProt Q05586+Q13224); assay: Positive allosteric modulation of GluN2B receptor (unknown origin) expressed in Doxycycline-inducible HEK293 cells by calcium influx assay
[4] = biological target: T3, Glutamate receptor ionotropic, NMDA 2C (Homo sapiens, UniProt Q05586+Q14957); assay: Positive allosteric modulation of GluN2C receptor (unknown origin) expressed in Doxycycline-inducible HEK293 cells by calcium influx assay
[5] = biological target: T4, Glutamate receptor ionotropic, NMDA 2D (Homo sapiens, UniProt O15399+Q05586); assay: Positive allosteric modulation of GluN2D receptor (unknown origin) expressed in Doxycycline-inducible HEK293 cells by calcium influx assay
[6] = biological target: T5, Glutamate receptor ionotropic, NMDA 2B (Rattus norvegicus, UniProt P35439+Q00960)
Description: (§1) Positive allosteric modulation of recombinant rat GluN2B receptor expressed in Xenopus oocytes assessed as glutamate/glycine-induced potentiation of current by 2EVC method

[7] = biological target: T6, Glutamate receptor ionotropic, NMDA 2C (Rattus norvegicus, UniProt P35439+Q00961)
Description: (§2) Positive allosteric modulation of recombinant rat GluN2C receptor expressed in Xenopus oocytes assessed as glutamate/glycine-induced potentiation of current by 2EVC method

[8] = biological target: T7, Glutamate receptor ionotropic, NMDA 2D (Rattus norvegicus, UniProt P35439+Q62645)
Description: (§3) Positive allosteric modulation of recombinant rat GluN2D receptor expressed in Xenopus oocytes assessed as glutamate/glycine-induced potentiation of current by 2EVC method

[9] = Kinetic solubility of compound in PBS at pH 7.3 by nephelometry
[10] = Stability in human plasma assessed as half life
[11] = Stability in mouse plasma assessed as half life
[12] = Stability in rat plasma assessed as half life
[13] = biological target: T5, Glutamate receptor ionotropic, NMDA 2B; remark: listed apart in the source
Description: Positive allosteric modulation of recombinant rat GluN2B receptor expressed in Xenopus laevis stage VI oocytes assessed as glutamate/glycine-induced potentiation of current by 2EVC method

[14] = biological target: T6, Glutamate receptor ionotropic, NMDA 2C; remark: listed apart in the source
Description: Positive allosteric modulation of recombinant rat GluN2C receptor expressed in Xenopus laevis stage VI oocytes assessed as glutamate/glycine-induced potentiation of current by 2EVC method

[15] = biological target: T7, Glutamate receptor ionotropic, NMDA 2D; remark: listed apart in the source
Description: Positive allosteric modulation of recombinant rat GluN2D receptor expressed in Xenopus laevis stage VI oocytes assessed as glutamate/glycine-induced potentiation of current by 2EVC method

[16] = in vitro; conditions: human, liver microsomes
Description: Intrinsic clearance in human liver microsomes at 3 uM preincubated for 5 mins followed by NADPH addition measured up to 30 mins by LC-MS/MS analysis

[17] = biological target: Glutamate receptor ionotropic, NMDA 2B (Rattus norvegicus, UniProt Q00960); conditions: oocyte
Description: as §1

[18] = biological target: Glutamate receptor ionotropic, NMDA 2C (Rattus norvegicus, UniProt Q00961); conditions: oocyte
Description: as §2

[19] = biological target: Glutamate receptor ionotropic, NMDA 2D (Rattus norvegicus, UniProt Q62645); conditions: oocyte
Description: as §3

[20] = Apparent permeability in MDCK-MDR1 cells; conditions: dog
[21] = Efflux ratio of apparent permeability in MDCK-MDR1 cells; conditions: dog
[22] = biological target: Translocator protein (Homo sapiens, UniProt P30536); assay: Inhibition of peripheral benzodiazepine receptor (unknown origin) by radioligand binding assay
[23] = biological target: T1, Glutamate receptor ionotropic, NMDA 2A; assay: Positive allosteric modulation of GluN2A receptor (unknown origin)
[24] = biological target: T3, Glutamate receptor ionotropic, NMDA 2C; assay: Positive allosteric modulation of GluN2C receptor (unknown origin)
[25] = biological target: T4, Glutamate receptor ionotropic, NMDA 2D; assay: Positive allosteric modulation of GluN2D receptor (unknown origin)
[26] = biological target: T2, Glutamate receptor ionotropic, NMDA 2B; assay: Positive allosteric modulation of human GluN2B receptor expressed in HEK293 cells by Whole-cell patch-clamp method
[27] = biological target: T3, Glutamate receptor ionotropic, NMDA 2C; assay: Positive allosteric modulation of human GluN2C receptor expressed in HEK293 cells by Whole-cell patch-clamp method

T5 sequence (Q00960 whole entry, one chain of several): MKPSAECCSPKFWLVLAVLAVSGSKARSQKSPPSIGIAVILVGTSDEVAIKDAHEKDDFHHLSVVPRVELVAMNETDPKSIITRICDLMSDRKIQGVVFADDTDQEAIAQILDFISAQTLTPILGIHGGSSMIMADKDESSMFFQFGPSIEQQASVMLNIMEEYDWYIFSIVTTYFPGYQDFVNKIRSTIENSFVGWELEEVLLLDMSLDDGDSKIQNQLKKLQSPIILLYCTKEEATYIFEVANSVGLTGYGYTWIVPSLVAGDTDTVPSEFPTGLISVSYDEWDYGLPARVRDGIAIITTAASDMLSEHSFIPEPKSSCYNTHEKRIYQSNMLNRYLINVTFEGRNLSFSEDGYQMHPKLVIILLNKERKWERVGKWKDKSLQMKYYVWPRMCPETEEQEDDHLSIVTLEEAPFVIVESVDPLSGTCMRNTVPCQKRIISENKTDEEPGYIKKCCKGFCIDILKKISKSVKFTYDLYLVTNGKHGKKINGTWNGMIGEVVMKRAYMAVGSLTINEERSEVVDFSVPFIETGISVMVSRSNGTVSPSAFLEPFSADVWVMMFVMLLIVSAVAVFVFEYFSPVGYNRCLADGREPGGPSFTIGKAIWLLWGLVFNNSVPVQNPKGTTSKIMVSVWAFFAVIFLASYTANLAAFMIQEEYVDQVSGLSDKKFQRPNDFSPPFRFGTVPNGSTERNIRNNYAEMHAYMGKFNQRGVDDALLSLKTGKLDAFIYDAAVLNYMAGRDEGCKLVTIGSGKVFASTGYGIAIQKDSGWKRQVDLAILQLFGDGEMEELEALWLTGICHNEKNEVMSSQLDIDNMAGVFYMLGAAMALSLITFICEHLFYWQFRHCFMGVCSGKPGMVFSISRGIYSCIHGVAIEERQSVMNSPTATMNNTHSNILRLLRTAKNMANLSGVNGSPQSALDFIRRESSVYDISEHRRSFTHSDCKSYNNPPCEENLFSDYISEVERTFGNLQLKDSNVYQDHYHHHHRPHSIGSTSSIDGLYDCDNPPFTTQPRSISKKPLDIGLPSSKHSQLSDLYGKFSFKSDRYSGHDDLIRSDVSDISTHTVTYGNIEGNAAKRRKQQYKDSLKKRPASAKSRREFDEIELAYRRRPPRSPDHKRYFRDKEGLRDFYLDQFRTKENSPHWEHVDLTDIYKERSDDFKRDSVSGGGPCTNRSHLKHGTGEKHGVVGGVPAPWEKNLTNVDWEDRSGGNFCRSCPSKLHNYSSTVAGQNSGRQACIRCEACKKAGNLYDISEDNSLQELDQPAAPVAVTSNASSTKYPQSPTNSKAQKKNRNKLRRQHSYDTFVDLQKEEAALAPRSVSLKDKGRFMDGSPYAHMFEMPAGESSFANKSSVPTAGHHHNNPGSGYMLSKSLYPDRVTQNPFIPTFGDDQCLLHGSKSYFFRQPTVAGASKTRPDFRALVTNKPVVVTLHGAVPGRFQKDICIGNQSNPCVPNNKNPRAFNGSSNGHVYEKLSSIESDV
Sequence of Glutamate receptor ionotropic, NMDA 2B (Rattus norvegicus, UniProt Q00960) (Q00960 whole entry): as the sequence (Q00960 whole entry, one chain of several) above
T3 sequence (Q14957 whole entry, one chain of several): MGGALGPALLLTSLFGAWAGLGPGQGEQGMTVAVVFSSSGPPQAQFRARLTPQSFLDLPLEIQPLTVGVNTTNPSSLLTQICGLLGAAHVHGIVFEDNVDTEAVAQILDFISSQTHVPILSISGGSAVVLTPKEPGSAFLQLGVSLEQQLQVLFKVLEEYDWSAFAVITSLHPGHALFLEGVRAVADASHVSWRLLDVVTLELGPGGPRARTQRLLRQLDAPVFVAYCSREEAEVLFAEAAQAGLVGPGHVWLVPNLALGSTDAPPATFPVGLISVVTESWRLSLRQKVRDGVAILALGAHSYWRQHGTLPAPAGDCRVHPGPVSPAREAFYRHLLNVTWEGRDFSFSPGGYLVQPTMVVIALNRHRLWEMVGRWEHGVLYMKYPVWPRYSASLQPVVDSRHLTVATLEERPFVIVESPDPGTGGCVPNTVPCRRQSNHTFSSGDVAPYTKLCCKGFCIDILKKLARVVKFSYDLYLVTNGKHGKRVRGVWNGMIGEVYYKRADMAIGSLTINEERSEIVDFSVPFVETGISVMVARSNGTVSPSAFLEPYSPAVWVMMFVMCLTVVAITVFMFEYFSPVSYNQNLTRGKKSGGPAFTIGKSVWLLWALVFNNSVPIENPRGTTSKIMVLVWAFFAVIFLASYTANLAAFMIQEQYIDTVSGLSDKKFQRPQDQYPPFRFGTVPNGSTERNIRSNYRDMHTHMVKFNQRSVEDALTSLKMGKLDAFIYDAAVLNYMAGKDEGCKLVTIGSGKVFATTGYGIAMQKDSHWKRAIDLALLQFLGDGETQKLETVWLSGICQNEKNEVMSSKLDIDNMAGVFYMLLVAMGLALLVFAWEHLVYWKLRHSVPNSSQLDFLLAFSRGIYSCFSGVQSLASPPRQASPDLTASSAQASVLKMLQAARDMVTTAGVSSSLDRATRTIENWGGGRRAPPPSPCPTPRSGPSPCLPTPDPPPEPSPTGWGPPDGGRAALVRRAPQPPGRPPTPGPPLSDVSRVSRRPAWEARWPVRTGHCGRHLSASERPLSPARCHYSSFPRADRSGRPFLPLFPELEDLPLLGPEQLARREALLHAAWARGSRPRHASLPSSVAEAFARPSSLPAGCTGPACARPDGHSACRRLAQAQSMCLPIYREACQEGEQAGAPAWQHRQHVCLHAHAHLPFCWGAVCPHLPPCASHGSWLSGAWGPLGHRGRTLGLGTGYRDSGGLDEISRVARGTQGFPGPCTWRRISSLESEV
Sequence of Translocator protein (P30536 whole entry): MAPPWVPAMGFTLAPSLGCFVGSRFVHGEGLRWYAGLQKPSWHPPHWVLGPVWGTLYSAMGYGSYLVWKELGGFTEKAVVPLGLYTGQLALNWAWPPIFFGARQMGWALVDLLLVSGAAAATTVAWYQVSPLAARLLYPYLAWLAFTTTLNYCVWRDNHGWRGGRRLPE

Row | EC50 [6] [nM] | EC50 [7] [µM] | EC50 [8] [µM] | Compound | also measured
1 | – | – | – | CC(C)[C@@H](O)CC[C@@H](C)[C@H]1CC[C@H]2[C@@H]3CC=C4C[C@@H](O)CC[C@]4(C)[C@H]3CC[C@]12C | EC50 [1]: 1200 nM
2 | – | – | – | CCCc1nc2[nH]c(C)c(NS(=O)(=O)c3ccc(C4CCCCC4)cc3)c(=O)n2n1 | EC50 [2]: 3 µM; EC50 [3]: 3 µM; EC50 [4]: 3 µM; EC50 [5]: 3 µM
3 | 2800 | 13 | 13 | Cc1sc2ncn(CC(=O)N3CC(C)(F)C3)c(=O)c2c1-c1ccc2c(c1)OC(F)(F)O2 | –
4 | 1600 | 9.4 | 7.4 | Cc1sc2ncn(CC(=O)N3CC(C)(F)C3)c(=O)c2c1-c1cc(F)cc(Cl)c1 | –
5 | 2500 | 6.6 | 13 | Cc1sc2ncn(CC(=O)N3CCC(C)C3)c(=O)c2c1-c1cccc(Br)c1 (stereo not given) | –
6 | 700 | 1.2 | 2.1 | Cc1sc2ncn(CC(=O)N3CC(C)(F)C3)c(=O)c2c1-c1ccc(F)c(Cl)c1 | –
7 | 970 | 2.4 | 3.6 | CCC1(F)CN(C(=O)Cn2cnc3sc(C)c(-c4cccc(Br)c4)c3c2=O)C1 | –
8 | – | – | – | Cc1sc2ncn(CC(=O)N3CCCC3)c(=O)c2c1-c1cccc(Br)c1 | solubility kinetic [9]: > 100 µM; half-life [10]: > 240 min; half-life [11]: > 240 min; half-life [12]: > 240 min; EC50 [13]: 9.9 µM; EC50 [14]: 12 µM; EC50 [15]: 18 µM; microsomal CLint at 0.5 h, 3 µM [16]: 50 µL/min/mg
9 | – | – | – | C#CC1(F)CN(C(=O)Cn2cnc3sc(C)c(-c4cccc(Br)c4)c3c2=O)C1 | EC50 [17]: Not_active; EC50 [18]: Not_active; EC50 [19]: Not_active
10 | – | 13 | 11 | CCCC1(F)CN(C(=O)Cn2cnc3sc(C)c(-c4cccc(Br)c4)c3c2=O)C1 | EC50 [17]: Not_active
11 | 2300 | 3.2 | 6.1 | CC1(F)CN(C(=O)Cn2cnc3sc(C(F)(F)F)c(-c4ccc(F)c(Br)c4)c3c2=O)C1 | –
12 | 780 | 2 | 2.8 | Cc1sc2ncn(CC(=O)N3CC(C)(F)C3)c(=O)c2c1-c1cccc(Br)c1 | –
13 | 1200 | 2.2 | 4.9 | Cc1sc2ncn(CC(=O)N3CC(C)(F)C3)c(=O)c2c1-c1cccc(Cl)c1 | –
14 | 14000 | – | – | Cc1sc2ncn(CC(=O)N3CC[C@@H](F)C3)c(=O)c2c1-c1cccc(Br)c1 | –
15 | 360 | 0.94 | 0.89 | CC1(F)CN(C(=O)Cn2cnc3sc(C#N)c(-c4ccc(F)c(Br)c4)c3c2=O)C1 | solubility kinetic [9]: 45 µM (≈ 21.6 µg/mL); half-life [10]: > 240 min; half-life [11]: > 240 min; half-life [12]: > 240 min; Papp [20]: 9.36 ×10⁻⁶ cm/s; efflux ratio [21]: 4.66; microsomal CLint at 0.5 h, 3 µM [16]: 16 µL/min/mg
16 | 1100 | 2.2 | 3.8 | Cc1sc2ncn(CC(=O)N3CC(C)(F)C3)c(=O)c2c1-c1cccc(C(F)(F)F)c1 | –
17 | 1500 | 3.9 | 4.5 | Cc1sc2ncn(CC(=O)N3CC(C)(F)C3)c(=O)c2c1-c1cc(Cl)ccc1F | –
18 | 10000 | – | – | Cc1sc2ncn(CC(=O)N3CC(C)(F)C3)c(=O)c2c1-c1ccc2ccn(C)c2c1 | –
19 | 570 | 0.82 | 1.1 | C#Cc1sc2ncn(CC(=O)N3CC(C)(F)C3)c(=O)c2c1-c1ccc(F)c(Br)c1 | Ki [22]: 550 nM
20 | 2800 | 5.3 | 11 | Cc1sc2ncn(CC(=O)N3CC(C)(C)C3)c(=O)c2c1-c1cccc(Br)c1 | –
21 | 2000 | 3.7 | 5.4 | Cc1sc2ncn(CC(=O)N3CC(F)(C4CC4)C3)c(=O)c2c1-c1cccc(Br)c1 | –

Row | EC50 [6] [nM] | EC50 [7] [µM] | EC50 [8] [µM] | Compound | also measured
22 | – | – | – | Cc1sc2ncn(CC(=O)N3CC[C@@H](O)C3)c(=O)c2c1-c1cccc(Br)c1 | EC50 [17]: Not_active; EC50 [18]: Not_active; EC50 [19]: Not_active
23 | 2000 | 5.2 | 5.8 | Cc1sc2ncn(CC(=O)N3CC(C)(F)C3)c(=O)c2c1-c1ccc(F)c(OC(C)C)c1 | –
24 | 2600 | 6.7 | 11.7 | Cc1sc2ncn(CC(=O)N3CCC(F)(F)C3)c(=O)c2c1-c1cccc(Br)c1 | –
25 | 2900 | 9.1 | 13 | Cc1sc2ncn(CC(=O)N3CCC(C)(F)C3)c(=O)c2c1-c1cccc(Br)c1 (stereo not given) | –
26 | 1100 | 2.6 | 4.2 | Cc1sc2ncn(CC(=O)N3CC(C)(F)C3)c(=O)c2c1-c1cccc(OC(F)(F)F)c1 | –
27 | 2000 | 3 | 6.3 | Cc1sc2ncn(CC(=O)N3CC(C)(F)C3)c(=O)c2c1-c1ccc2ccccc2c1 | –
28 | 7600 | 12 | – | Cc1sc2ncn(CC(=O)N3CC(C)C3)c(=O)c2c1-c1cccc(Br)c1 | –
29 | 21000 | – | – | Cc1sc2ncn(CC(=O)N3CCC[C@@H]3C)c(=O)c2c1-c1cccc(Br)c1 | –
30 | 330 | 0.63 | 1.1 | Cc1sc2ncn(CC(=O)N3CC(C)(F)C3)c(=O)c2c1-c1ccc(F)c(Br)c1 | solubility kinetic [9]: 34 µM (≈ 15.9 µg/mL); half-life [10]: > 240 min; half-life [11]: > 240 min; half-life [12]: > 240 min; Papp [20]: 19.6 ×10⁻⁶ cm/s; efflux ratio [21]: 1.98; microsomal CLint at 0.5 h, 3 µM [16]: 29 µL/min/mg
31 | 740 | 0.87 | 2.1 | CC1(F)CN(C(=O)Cn2cnc3scc(-c4ccc(F)c(Br)c4)c3c2=O)C1 | solubility kinetic [9]: 33 µM (≈ 15 µg/mL); half-life [10]: > 240 min; half-life [11]: > 240 min; half-life [12]: > 240 min; Papp [20]: 16.6 ×10⁻⁶ cm/s; efflux ratio [21]: 2.04; microsomal CLint at 0.5 h, 3 µM [16]: 14 µL/min/mg
32 | 1800 | 3.14 | 4.7 | CCc1sc2ncn(CC(=O)N3CC(C)(F)C3)c(=O)c2c1-c1ccc(F)c(Br)c1 | –
33 | 600 | 1.6 | 2.4 | Cc1sc2ncn(CC(=O)N3CC(C)(F)C3)c(=O)c2c1-c1ccc(F)c(C(F)(F)F)c1 | –
34 | 15000 | 12 | 25 | Cc1sc2ncn(CC(=O)N3CC[C@H](F)C3)c(=O)c2c1-c1cccc(Br)c1 | –
35 | 410 | 0.86 | 1 | Cc1sc2ncn(CC(=O)N3CC(C)(F)C3)c(=O)c2c1-c1ccc(Cl)c(Cl)c1 | –
36 | 1300 | 4.2 | 4.8 | Cc1sc2ncn(CC(=O)N3CC(C)(F)C3)c(=O)c2c1-c1ccc(F)c(C#N)c1 | –
37 | 23000 | 20 | – | Cc1sc2ncn(CC(=O)N3CCC3)c(=O)c2c1-c1cccc(Br)c1 | –
38 | 1700 | 4.5 | 5.6 | Cc1sc2ncn(CC(=O)N3CC(C)(F)C3)c(=O)c2c1-c1ccc(Cl)c(F)c1 | –
39 | 2000 | 5.3 | 6.9 | Cc1sc2ncn(CC(=O)N3CC(C)(F)C3)c(=O)c2c1-c1cccc(Cl)c1F | –
40 | – | – | – | C[C@H](CC[C@](C)(O)C(F)(F)F)[C@H]1CC[C@H]2[C@@H]3CC=C4C[C@@](C)(O)CC[C@]4(C)[C@H]3CC[C@]12C [DALZANEMDOR] | EC50 [23]: 79 nM; EC50 [24]: 79 nM; EC50 [25]: 79 nM
41 | – | – | – | C[C@@H](O)[C@@H](C(N)=O)N1C[C@@]2(CCCN2C(=O)OC(C)(C)C)C1=O [ZELQUISTINEL] | EC50 [26]: 9.7 µM; EC50 [27]: 9.7 µM
